Test results taken from PMC11062922 (Nature Chemical Biology, 2023).

Tests used:
AAK1 = target: T1, AAK1 (Homo sapiens, UniProt Q2M2I8); assay: Kinobeads two-dose competition binding: AAK1; conditions: for potency estimated from few doses: sheet "Kinobeads Drugmatrix - all", unit inferred, same values below 1000 recur in sheet "nanomolar", read-out: Kinobeads Drugmatrix - all: apparent Kd, AAK1; for CATDS: sheet CATDS matrix 2, Gene Name AAK1;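 on all read-outs here: kinobeads competition pulldown from cell lysate, compound preincubated 45 min at 4 °C, bead-bound protein measured by label-free mass spectrometry against DMSO vehicle control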
T1 construct: to maximize the representation of endogenous proteins; endogenous in cells

ACOX1 = target: T2, ACOX1 (Homo sapiens, UniProt Q15067); assay: Kinobeads two-dose competition binding: ACOX1; conditions: sheet CATDS matrix 2; Gene Name ACOX1;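 further: competition of compounds with immobilized broad-spectrum kinase inhibitor beads in cell lysate at 100 and 1,000 nM, 45 min at 4 °C, bead-bound protein quantified by label-free MS versus DMSO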
T2 construct: endogenous in cells
T2 sequence (Q15067 1-660): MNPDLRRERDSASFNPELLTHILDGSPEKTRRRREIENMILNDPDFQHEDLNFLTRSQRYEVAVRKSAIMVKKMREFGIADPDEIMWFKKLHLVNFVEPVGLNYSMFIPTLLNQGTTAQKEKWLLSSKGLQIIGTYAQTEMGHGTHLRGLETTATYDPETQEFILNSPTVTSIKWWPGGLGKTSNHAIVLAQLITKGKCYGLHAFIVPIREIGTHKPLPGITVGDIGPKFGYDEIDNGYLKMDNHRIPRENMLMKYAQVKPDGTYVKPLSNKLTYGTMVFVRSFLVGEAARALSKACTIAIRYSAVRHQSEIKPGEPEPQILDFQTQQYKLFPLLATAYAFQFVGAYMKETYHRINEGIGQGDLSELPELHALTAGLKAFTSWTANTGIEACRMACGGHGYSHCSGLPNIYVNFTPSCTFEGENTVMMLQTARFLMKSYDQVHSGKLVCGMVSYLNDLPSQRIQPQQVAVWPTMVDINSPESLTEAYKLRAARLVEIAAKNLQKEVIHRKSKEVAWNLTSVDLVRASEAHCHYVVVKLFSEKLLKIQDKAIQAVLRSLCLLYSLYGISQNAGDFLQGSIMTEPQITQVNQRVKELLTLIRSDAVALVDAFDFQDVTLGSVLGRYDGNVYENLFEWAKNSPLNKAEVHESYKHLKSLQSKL

ABL1 = ABL1 (Homo sapiens, UniProt P00519); assay: Kinobeads two-dose competition binding: ABL1; conditions: sheet CATDS matrix 2; Gene Name ABL1
ACAD11 = target: T3, ACAD11 (Homo sapiens, UniProt Q709F0); assay: Kinobeads two-dose competition binding: ACAD11; conditions: sheet CATDS matrix 2; Gene Name ACAD11
T3 construct: endogenous in cells
T3 sequence (Q709F0 1-780): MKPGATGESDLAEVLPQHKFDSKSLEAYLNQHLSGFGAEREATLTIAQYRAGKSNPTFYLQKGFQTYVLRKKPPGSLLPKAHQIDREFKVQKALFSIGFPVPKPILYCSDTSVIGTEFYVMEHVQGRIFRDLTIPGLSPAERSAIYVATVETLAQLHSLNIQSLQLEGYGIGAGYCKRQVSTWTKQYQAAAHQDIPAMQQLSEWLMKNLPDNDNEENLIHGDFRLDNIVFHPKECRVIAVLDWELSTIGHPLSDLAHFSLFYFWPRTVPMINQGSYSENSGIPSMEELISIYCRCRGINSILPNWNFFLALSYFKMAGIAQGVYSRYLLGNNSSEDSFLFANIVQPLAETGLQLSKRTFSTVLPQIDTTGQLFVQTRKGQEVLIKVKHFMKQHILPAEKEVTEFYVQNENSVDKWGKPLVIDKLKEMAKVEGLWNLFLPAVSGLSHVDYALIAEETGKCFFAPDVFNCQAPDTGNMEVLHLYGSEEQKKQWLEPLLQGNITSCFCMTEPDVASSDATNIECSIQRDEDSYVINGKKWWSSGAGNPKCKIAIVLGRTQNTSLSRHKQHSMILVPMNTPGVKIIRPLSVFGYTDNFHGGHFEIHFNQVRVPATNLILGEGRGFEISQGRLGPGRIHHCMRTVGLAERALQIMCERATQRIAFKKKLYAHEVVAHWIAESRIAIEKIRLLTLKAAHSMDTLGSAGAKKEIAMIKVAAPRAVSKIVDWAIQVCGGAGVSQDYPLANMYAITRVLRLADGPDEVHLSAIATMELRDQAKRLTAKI

ABL2 = target: T4, ABL2 (Homo sapiens, UniProt P42684); assay: Kinobeads two-dose competition binding: ABL2; conditions: sheet CATDS matrix 2; Gene Name ABL2
T4 construct: endogenous in cells
T4 sequence (P42684 whole entry): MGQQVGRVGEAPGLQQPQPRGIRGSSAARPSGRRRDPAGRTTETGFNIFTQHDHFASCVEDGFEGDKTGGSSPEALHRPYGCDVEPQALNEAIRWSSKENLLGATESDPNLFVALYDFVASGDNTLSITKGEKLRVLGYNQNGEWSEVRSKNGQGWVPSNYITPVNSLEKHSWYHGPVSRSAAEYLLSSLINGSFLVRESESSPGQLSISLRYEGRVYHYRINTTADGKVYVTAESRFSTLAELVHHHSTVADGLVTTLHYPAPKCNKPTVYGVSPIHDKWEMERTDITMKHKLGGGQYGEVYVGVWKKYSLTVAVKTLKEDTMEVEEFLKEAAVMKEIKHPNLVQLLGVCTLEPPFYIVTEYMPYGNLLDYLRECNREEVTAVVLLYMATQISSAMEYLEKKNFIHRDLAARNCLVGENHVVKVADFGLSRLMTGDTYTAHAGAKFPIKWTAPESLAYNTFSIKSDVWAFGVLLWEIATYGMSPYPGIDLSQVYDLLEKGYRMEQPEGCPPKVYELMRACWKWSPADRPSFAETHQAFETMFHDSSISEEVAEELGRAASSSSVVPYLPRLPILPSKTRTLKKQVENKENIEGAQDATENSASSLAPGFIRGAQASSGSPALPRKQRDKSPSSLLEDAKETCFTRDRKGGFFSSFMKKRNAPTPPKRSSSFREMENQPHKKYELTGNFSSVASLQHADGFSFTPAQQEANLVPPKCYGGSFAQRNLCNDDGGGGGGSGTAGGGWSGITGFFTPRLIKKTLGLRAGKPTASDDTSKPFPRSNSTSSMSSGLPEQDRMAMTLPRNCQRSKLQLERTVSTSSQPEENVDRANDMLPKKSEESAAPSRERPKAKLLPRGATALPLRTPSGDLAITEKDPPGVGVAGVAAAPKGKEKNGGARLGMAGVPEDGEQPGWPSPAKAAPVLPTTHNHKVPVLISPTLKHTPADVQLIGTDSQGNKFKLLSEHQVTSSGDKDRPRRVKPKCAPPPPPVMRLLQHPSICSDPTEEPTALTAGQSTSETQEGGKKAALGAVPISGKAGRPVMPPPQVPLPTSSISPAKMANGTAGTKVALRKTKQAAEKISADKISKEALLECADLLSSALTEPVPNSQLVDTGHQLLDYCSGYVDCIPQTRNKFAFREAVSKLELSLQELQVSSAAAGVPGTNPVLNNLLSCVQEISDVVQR

T1 sequence (Q2M2I8 whole entry): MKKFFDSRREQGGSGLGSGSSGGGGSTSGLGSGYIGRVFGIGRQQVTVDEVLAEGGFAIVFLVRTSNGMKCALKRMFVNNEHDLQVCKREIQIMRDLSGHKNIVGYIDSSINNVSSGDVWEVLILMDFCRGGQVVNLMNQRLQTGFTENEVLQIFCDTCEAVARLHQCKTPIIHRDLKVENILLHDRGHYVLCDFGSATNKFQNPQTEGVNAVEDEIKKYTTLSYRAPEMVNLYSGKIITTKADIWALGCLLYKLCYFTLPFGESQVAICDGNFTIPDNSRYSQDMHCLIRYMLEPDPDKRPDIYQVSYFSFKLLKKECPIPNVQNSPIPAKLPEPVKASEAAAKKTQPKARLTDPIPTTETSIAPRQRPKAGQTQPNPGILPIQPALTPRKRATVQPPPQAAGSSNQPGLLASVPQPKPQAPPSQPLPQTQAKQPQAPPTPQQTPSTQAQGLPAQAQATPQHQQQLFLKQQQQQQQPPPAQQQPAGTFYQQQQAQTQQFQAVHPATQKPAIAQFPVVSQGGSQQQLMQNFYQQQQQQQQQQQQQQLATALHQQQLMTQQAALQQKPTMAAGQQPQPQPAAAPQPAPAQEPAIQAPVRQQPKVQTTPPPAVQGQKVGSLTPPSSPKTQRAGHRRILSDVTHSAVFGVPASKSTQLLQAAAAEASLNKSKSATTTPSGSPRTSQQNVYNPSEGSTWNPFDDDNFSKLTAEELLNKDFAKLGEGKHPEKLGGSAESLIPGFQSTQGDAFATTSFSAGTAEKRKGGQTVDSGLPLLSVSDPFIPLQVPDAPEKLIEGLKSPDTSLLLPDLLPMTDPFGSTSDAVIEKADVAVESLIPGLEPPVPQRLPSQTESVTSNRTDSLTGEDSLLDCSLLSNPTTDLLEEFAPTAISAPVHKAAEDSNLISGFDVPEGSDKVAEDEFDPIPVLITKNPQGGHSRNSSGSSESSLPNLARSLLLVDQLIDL
Sequence of ABL1 (P00519 28-1130 limits assumed): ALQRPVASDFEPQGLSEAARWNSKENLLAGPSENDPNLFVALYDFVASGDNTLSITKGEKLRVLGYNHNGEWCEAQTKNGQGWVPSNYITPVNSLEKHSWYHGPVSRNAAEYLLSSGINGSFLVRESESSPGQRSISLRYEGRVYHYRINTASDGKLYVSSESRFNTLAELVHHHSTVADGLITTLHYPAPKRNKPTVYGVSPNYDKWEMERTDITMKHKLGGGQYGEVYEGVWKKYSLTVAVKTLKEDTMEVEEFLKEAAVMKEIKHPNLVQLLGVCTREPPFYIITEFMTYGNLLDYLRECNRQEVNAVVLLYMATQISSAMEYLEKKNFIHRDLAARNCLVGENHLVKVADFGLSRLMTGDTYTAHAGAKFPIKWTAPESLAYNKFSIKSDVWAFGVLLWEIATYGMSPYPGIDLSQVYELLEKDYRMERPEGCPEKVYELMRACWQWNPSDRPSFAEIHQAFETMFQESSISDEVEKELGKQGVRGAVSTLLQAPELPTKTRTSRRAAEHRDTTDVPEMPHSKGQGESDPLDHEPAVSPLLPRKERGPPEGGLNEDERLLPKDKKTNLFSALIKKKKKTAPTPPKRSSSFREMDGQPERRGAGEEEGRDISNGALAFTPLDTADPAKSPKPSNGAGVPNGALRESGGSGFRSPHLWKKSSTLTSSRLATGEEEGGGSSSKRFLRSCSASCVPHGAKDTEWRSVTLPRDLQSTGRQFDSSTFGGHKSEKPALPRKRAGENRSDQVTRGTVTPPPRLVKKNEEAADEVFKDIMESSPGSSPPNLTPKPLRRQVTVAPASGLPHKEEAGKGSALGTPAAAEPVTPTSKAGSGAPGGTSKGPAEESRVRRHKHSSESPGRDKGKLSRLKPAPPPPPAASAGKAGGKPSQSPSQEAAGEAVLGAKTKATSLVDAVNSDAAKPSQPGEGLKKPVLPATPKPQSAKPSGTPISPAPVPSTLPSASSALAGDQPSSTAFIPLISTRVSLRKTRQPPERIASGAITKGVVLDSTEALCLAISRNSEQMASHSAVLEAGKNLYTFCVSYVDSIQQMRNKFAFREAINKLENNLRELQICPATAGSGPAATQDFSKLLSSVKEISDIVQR

potency estimated from few doses (AAK1) [nM]	CATDS (AAK1)	CATDS (ACOX1)	CATDS (ABL1)	CATDS (ACAD11)	CATDS (ABL2)	Compound
67.3	0.04112	0	0	0	0	CCn1c(-c2nonc2N)nc2c(C#CC(C)(C)O)nc(O[C@@H](CN)c3ccccc3)cc21 [GSK1007102B]
	0	0	0	0	0	Cc1ccc(NC(=O)Nc2cc(C(C)(C)C)nn2-c2ccccc2)cc1 [GSK1014915A]
	0	0	0	0	0	NC(=O)c1sc(-n2cnc3ccccc32)cc1OCc1ccccc1Br [GSK1023156A]
	0	0	0	0	0	NC(=O)c1sc(-n2cnc3ccccc32)cc1OCc1ccccc1F [GSK1024306A]
	0	0	0	0	0	COc1cc2ncn(-c3cc(OCc4ccccc4C(F)(F)F)c(C(C)=O)s3)c2cc1OC [GSK1030059A]
	0	0	0	0	0	O=c1[nH]cc(-c2ccc(O)cc2)c2sc(-c3ccncc3)cc12 [GSK1033723A]
194	0.08249	0	0	0	0	Nc1nccc(-c2ccc3c(N)n[nH]c3c2)n1 [GSK1034945A]
	0	0	0	0	0	CCCN1CCCC(c2ccc(Nc3nc(Nc4cc(F)ccc4C(N)=O)c4cc[nH]c4n3)c(OC)c2)C1 (stereo not shown) [GSK1173862A]
	0	0	0	0	0	COc1cc(N2CCN(C(C)C)CC2)ccc1Nc1nc(Nc2ccc(F)cc2C(N)=O)c2cc[nH]c2n1 [GSK1220512A]
> 1000	0	0	0	0	0	COc1ccc(Nc2nccc(-c3ccc(NC(=O)c4cc5cc(F)ccc5[nH]4)cc3)n2)cc1 [GSK1229496A]
79.6	0.03638	0	0	0	0	NCC(NC(=O)c1cc(-c2ccnc3[nH]ccc23)cs1)c1ccccc1 (stereo not shown) [GSK1229959A]
	0	0	0	0	0	NCCC(NC(=O)c1cc(Br)c(-c2ccnc3[nH]ccc23)s1)c1ccccc1 (stereo not shown) [GSK1307810A]
820	0.2016	0	0	0	0	NCC(NCc1ccc(-c2ccnc3[nH]ccc23)s1)c1ccccc1 (stereo not shown) [GSK1321565A]
> 1000	0	0	0	0	0	NC(CNC(=O)c1cc(Br)c(-c2ccnc3[nH]ccc23)s1)c1ccccc1 (stereo not shown) [GSK1322949A]
	0	0	0	0	0	NCC(NC(=O)c1cc(-c2cccnc2)c(-c2ccnc3[nH]ccc23)s1)c1ccccc1 (stereo not shown) [GSK1323434A]
> 1000	0	0	0	0	0	NCC(NC(=O)c1cc(-c2cn[nH]c2)c(-c2ccnc3[nH]ccc23)s1)c1ccccc1 (stereo not shown) [GSK1325775A]
	0	0	0	0	0	O=C(Nc1c(F)cccc1F)c1cc(C(=O)c2ccccc2F)c[nH]1 [GSK1326180A]
	0	0	0	0	0	CCCN1CCC(c2ccc(Nc3nc(Nc4cc(F)ccc4C(N)=O)c4cc[nH]c4n3)c(OC)c2)CC1 [GSK1326255A]
	0	0	0	0	0	N#Cc1cccc(C(=O)NC2CCN(c3ccnc(Nc4ccc(F)cc4)n3)C2)c1 (stereo not shown) [GSK1379708A]
	0	0	0	0	0	CC(=O)c1cccc(NC(=O)NC2CCN(c3ccnc(Nc4ccc(F)cc4)n3)C2)c1 (stereo not shown) [GSK1379710A]
	0	0	0	0	0	COC(=O)C(NC(=O)NC1CCN(c2ccnc(Nc3ccc(F)cc3)n2)C1)c1ccccc1 (stereo not shown) [GSK1379712_KCGS]
	0	0	0	0	0	CC(C(=O)NC1CCN(c2ccnc(Nc3ccc(F)cc3)n2)C1)c1ccc(Cl)cc1 (stereo not shown) [GSK1379713A]
	0	0	0	0	0	Cc1ccc(C)c(NC(=O)NC2CCN(c3ccnc(Nc4ccc(F)cc4)n3)C2)c1 (stereo not shown) [GSK1379720A]
	0	0	0	0	0	O=C(Nc1ccccc1F)NC1CCN(c2ccnc(Nc3ccc(F)cc3)n2)C1 (stereo not shown) [GSK1379722A]
	0	0	0	0	0	COc1ccc(Nc2nccc(N3CCC(NC(=O)c4cccc(C#N)c4)C3)n2)cc1 (stereo not shown) [GSK1379730A]
	0	0	0	0	0	COc1ccc(Nc2nccc(N3CCC(NC(=O)c4cccc(NC(C)=O)c4)C3)n2)cc1 (stereo not shown) [GSK1379732A]
	0	0	0	0	0	COc1ccc(Nc2nccc(N3CCC(NC(=O)C(C)c4ccc(Cl)cc4)C3)n2)cc1 (stereo not shown) [GSK1379735A]
	0	0	0	0	0	CCCc1ccc(S(=O)(=O)NC2CCN(c3ccnc(Nc4ccc(OC)cc4)n3)C2)cc1 (stereo not shown) [GSK1379737A]

Compound	potency estimated from few doses (AAK1) [nM]	CATDS (AAK1)	CATDS (ACOX1)	CATDS (ABL1)	CATDS (ACAD11)	CATDS (ABL2)
c1ccc(-c2cc3ccncc3cc2OC2CCNCC2)cc1 [GSK1122999D]		0	0	0	0	0
NCCCC(NC(=O)c1cc(Br)c(-c2ccnc3[nH]ccc23)s1)c1ccccc1 (stereo not shown) [GSK1287544A]		0	0	0	0	0
Cc1cccc(Nc2nc(NCCN)ncc2C(N)=O)c1 [GSK1292139B]	164	0.21	0	0	0	0
